In PMC10458458, “Characterization of Anticancer Effects of the Analogs of DJ4, a Novel Selective Inhibitor of ROCK and MRCK Kinases” (Pharmaceuticals, 2023):

Columns and labels:
[1] = test system: MDA-MB-231 breast cancer cells; assay: Cell migration (scratch/wound healing) assay; type: cell-based, human; conditions: MDA-MB-231, 2.5 µM for 24 h, then 9 h migration in compound-free medium; vehicle = 100%
Description: Lastly, we examined the effects of these four analogs on migration of MDA-MB-231 breast cancer cells. Scratch assays were performed on cells treated with the various analogs for 24 h and then allowed to migrate into the scratched area for 9 h in compound-free media. […] Due to limited solubility, DJ-Morpholine was not tested for its effect on cell migration.
Figure 9 DJ4 analogs inhibit migration of MDA-MB-231 breast cancer cells. (A) MDA-MB-231 cells were treated with 2.5 µM concentration of DJ4 analogs for 24 h. At the end of the treatment period, uniform scratches were made across the monolayer of cells. The cells were allowed to migrate in the scratched area for 9 h in a compound-free medium. The cells were stained with calcein (green) and propidium iodide (red) to study live and dead cell populations in the scratched area. (B) The distance migrated by the treated cells was normalized to vehicle control treated cells. Statistical significance was determined by one-way ANOVA followed by Dunnett’s multiple comparison test. The error bars indicate SEM from triplicates of the experiment. *** p < 0.001. TEXT PRINTED IN THE PICTURE: (B) DMSO: % Migration: 100 | (B) DJ4: % Migration: 32 *** | (B) DJ110: % Migration: 28 *** | (B) DJ Allyl: % Migration: 36 *** | (B) DJE4: % Migration: 48 ***
Migration (scratch/wound healing) assays were performed using published procedures. Briefly, MDA-MB-231 cells were grown to confluence, and cells were treated with DMSO (vehicle control), DJ4, and its active analogs at 2.5 µM concentration for 24 h. At the end of the treatment period, uniform scratches were made in the monolayer of cells. The cells were allowed to migrate for 9 h in a compound-free medium. Light microscopic images were obtained at 0 h and 9 h after creating scratches. The width of the scratches was measured by using AxioVision software (AxioVision Inc., Carl Zeiss, Jena, Germany). The percentage of migration in each treatment at 9 h was calculated in comparison to 0 h readings. Furthermore, the percent migration in treatment groups was normalized to vehicle control (considering 100% migration). The experiment was performed in triplicate. Viability of the cells at the migration area was studied to confirm that the anti-migration effect of the analogs at the tested concentration and duration is independent of cell death. At the end of the migration period, cells were stained with calcein (Invitrogen, Waltham, MA, USA) and propidium iodide (Invitrogen, Waltham, MA, USA) dyes, as per the manufacturer’s protocol, which stain the live and dead cells, respectively.

HCT-15 = assay: NCI-60 screen (SRB); type: cell-based, human; conditions: HCT-15 (Colon Cancer), 10 µM, 48 h; negative = cell death vs time zero
Method in brief: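 Single-concentration (10 µM) NCI screen, 48 h treatment, SRB staining of TCA-fixed cells. Growth normalised to control (100%) and time-zero density.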

SMILES | % Migration compared to control [1] [%] | percent cell growth (HCT-15) [%]
C=CC/N=C1\NC(=O)/C(=C\c2c[nH]c3ncccc23)S1 [DJ-Allyl] | 36 | 24.7
O=C1N/C(=N\Cc2ccccc2)S/C1=C/c1c[nH]c2ncccc12 [DJ110] | 28 | –
CC/N=C1\NC(=O)/C(=C\c2c[nH]c3ncccc23)S1 [DJE4] | 48 | 16.0
O=C1N/C(=N\CCc2ccccc2)S/C1=C/c1c[nH]c2ncccc12 [DJ4] | 32 | 36.5
Cl.O=C1NC(=NCCc2ccccc2)SC1=Cc1c[nH]c2ncccc12 (mixture of isomers) [DJ4-HCl] | – | 33.5
